Reference: PubChem BioAssay AID296 (DTP/NCI, 2004)
Where “and” joins values, the source holds several entries; their conditions need not be identical. Equal values may be shown once. Results filed as inconclusive are left out.

System: MX-1 breast xenograft, nude mice, tumor weight T/C
Experiment: NCI In Vivo Anticancer Drug Screen. Data for tumor model Human Mammary Carcinoma MX-1 Xenograft (intrarenal inoculation) in NU/NU Swiss (nude) mice
Settings: endpoint: mean tumor weight change, higher = larger tumour
Procedure, shortened: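 Read-out: treated (T) over vehicle control (C) ratio of survival or tumor size. Dosing in animals carrying the transplanted tumor.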

[1] = dose: 50.0 mg/kg/injection, schedule: Q01DX010 (sc), vehicle: saline
[2] = dose: 200.0 mg/kg/injection, schedule: Q04DX003 (sc), vehicle: saline with Tween-80
[3] = dose: 400.0 mg/kg/injection, schedule: Q04DX003 (sc), vehicle: saline with Tween-80
[4] = dose: 800.0 mg/kg/injection, schedule: Q04DX003 (sc), vehicle: saline with Tween-80

`OC(C1CO1)C(O)C1CO1` (configuration not stated) was tested, and the T/C (dose: 1.0 mg/kg/injection, schedule: Q01DX010 (sc), vehicle: saline) was 5 % of control and 18 % of control.
For `C=CS(=O)(=O)c1ccccc1`, the T/C [1] was 91 % of control and the T/C (dose: 100.0 mg/kg/injection, schedule: Q01DX010 (sc), vehicle: saline) was 81 % of control.
For `COc1ccc(CC2C(=O)NC(C)C(=O)N(C)C3Cc4ccc(cc4)Oc4cc(ccc4O)CC(C(=O)NC(C)C(=O)NC(C)C(=O)N2C)N(C)C3=O)cc1` (configuration not stated), the T/C (dose: 8.0 mg/kg/injection, schedule: Q04DX003 (sc), vehicle: saline with Tween-80) was 28 % of control and 44 % of control and 47 % of control, the T/C (dose: 16.0 mg/kg/injection, schedule: Q04DX003 (sc), vehicle: saline with Tween-80) was 20 % of control and 26 % of control and 43 % of control and the T/C (dose: 32.0 mg/kg/injection, schedule: Q04DX003 (sc), vehicle: saline with Tween-80) was 6 % of control and 18 % of control.
In the case of `CC1=C(O)C(=O)[C@@H]2O[C@@H]2C1=O`, the T/C (dose: 2.35 mg/kg/injection, schedule: Q04DX003 (sc), vehicle: saline) is reported as 86 % of control, the T/C (dose: 4.69 mg/kg/injection, schedule: Q04DX003 (sc), vehicle: saline) is reported as 82 % of control and the T/C (dose: 9.38 mg/kg/injection, schedule: Q04DX003 (sc), vehicle: saline) is reported as 119 % of control. For the same molecule, the T/C (dose: 18.75 mg/kg/injection, schedule: Q04DX003 (sc), vehicle: saline) was 63 % of control.
In the case of `CC(C)[NH-].CC(C)[NH-].O.O.[Cl][Pt+2][Cl]`, the T/C (dose: 3.12 mg/kg/injection, schedule: Q01DX010 (sc), vehicle: dextrose) is reported as 80 % of control and 97 % of control, the T/C (dose: 6.25 mg/kg/injection, schedule: Q01DX010 (sc), vehicle: dextrose) is reported as 7 % of control and 22 % of control and the T/C (dose: 25.0 mg/kg/injection, schedule: Q01DX010 (sc), vehicle: dextrose) is reported as -89 % of control.
In the case of `COC1C(N)C(OC2C(Oc3cccc4c(O)c5c(=O)oc6ccc(C)c7c(=O)oc(c34)c5c67)OC(C)C(O)C2(C)O)OC(C)C1O` (configuration not stated), the T/C (dose: 2.5 mg/kg/injection, schedule: Q04DX003 (ip), vehicle: lactic acid) is reported as 51 % of control, the T/C (dose: 5.0 mg/kg/injection, schedule: Q04DX003 (ip), vehicle: lactic acid) is reported as 49 % of control and the T/C (dose: 10.0 mg/kg/injection, schedule: Q04DX003 (ip), vehicle: lactic acid) is reported as 9 % of control.
With `C=C(NC(=O)C(=C)NC(=O)c1csc(C2=NC3c4csc(n4)C4NC(=O)c5csc(n5)C(C(C)(O)C(C)O)NC(=O)C5CSC(=N5)/C(=C/C)NC(=O)C(C(C)O)NC(=O)c5csc(n5)C3(CC2)NC(=O)C(C)NC(=O)C(=C)NC(=O)C(=C)NC(=O)C(C(C)C)NC2C=Cc3c(C(C)O)cc(nc3C2O)C(=O)OC4C)n1)C(N)=O` (configuration not stated) the T/C (dose: 187.5 mg/kg/injection, schedule: Q04DX003 (sc), vehicle: suspension in saline) was 123 % of control, the T/C (dose: 375.0 mg/kg/injection, schedule: Q04DX003 (sc), vehicle: suspension in saline) was 98 % of control and the T/C (dose: 750.0 mg/kg/injection, schedule: Q04DX003 (sc), vehicle: suspension in saline) was 105 % of control. The T/C (dose: 1500.0 mg/kg/injection, schedule: Q04DX003 (sc), vehicle: suspension in saline) was 152 % of control.
`CCCCNC(C)[C@]1(O)Cc2c(O)c3c(c(O)c2[C@@H](OC2CC(N)C(O)C(C)O2)C1)C(=O)c1c(OC)cccc1C3=O` (some centres not stated) was tested, and the T/C (dose: 6.25 mg/kg/injection, schedule: Q01DX010 (sc), vehicle: saline) was 59 % of control and 61 % of control and the T/C (dose: 18.0 mg/kg/injection, schedule: Q01DX010 (sc), vehicle: saline) was 12 % of control.
In the case of `Cc1ccc(S(=O)(=O)OCOS(=O)(=O)c2ccc(C)cc2)cc1`, the T/C (dose: 300.0 mg/kg/injection, schedule: Q04DX003 (sc), vehicle: Klucel (hydroxypropylcellulose) (HPC)) is reported as 89 % of control, the T/C (dose: 600.0 mg/kg/injection, schedule: Q04DX003 (sc), vehicle: Klucel (hydroxypropylcellulose) (HPC)) is reported as 98 % of control and the T/C (dose: 1200.0 mg/kg/injection, schedule: Q04DX003 (sc), vehicle: Klucel (hydroxypropylcellulose) (HPC)) is reported as 85 % of control. The T/C (dose: 2400.0 mg/kg/injection, schedule: Q04DX003 (sc), vehicle: Klucel (hydroxypropylcellulose) (HPC)) was 63 % of control.
With `CN(C)N=Nc1ccc(C(=O)O)cc1` the T/C (dose: 100.0 mg/kg/injection, schedule: Q04DX003 (ip), vehicle: saline) was 55 % of control, the T/C (dose: 200.0 mg/kg/injection, schedule: Q04DX003 (ip), vehicle: saline) was 16 % of control and the T/C (dose: 400.0 mg/kg/injection, schedule: Q04DX003 (ip), vehicle: saline) was -31 % of control.
`CC1(O)C=CC(=O)C=C1` was tested, and the T/C (dose: 25.0 mg/kg/injection, schedule: Q04DX003 (ip), vehicle: water) was 109 % of control and the T/C (dose: 50.0 mg/kg/injection, schedule: Q04DX003 (ip), vehicle: water) was 89 % of control.
For `CC[C@@H](C)[C@@H]1NC(=O)C(NC(=O)C(CC(C)C)N(C)C(=O)C2CCCN2C(=O)C(C)O)C(C)OC(=O)C(Cc2ccc(OC)cc2)N(C)C(=O)C2CCCN2C(=O)C(CC(C)C)NC(=O)C(C)C(=O)C(C(C)C)OC(=O)C[C@H]1O` (some centres not stated), the T/C (dose: 300.0 micrograms/kg/injection, schedule: Q04DX003 (sc), vehicle: distilled water + alcohol) was 91 % of control, the T/C (dose: 600.0 micrograms/kg/injection, schedule: Q04DX003 (sc), vehicle: distilled water + alcohol) was 157 % of control and the T/C (dose: 1200.0 micrograms/kg/injection, schedule: Q04DX003 (sc), vehicle: distilled water + alcohol) was 27 % of control.
In the case of `O=C(O)C1Cc2nc[nH]c2CN1CO` (configuration not stated), the T/C (dose: 100.0 mg/kg/injection, schedule: Q04DX003 (sc), vehicle: saline with Tween-80) is reported as 113 % of control, the T/C [2] is reported as 113 % of control and the T/C [3] is reported as 80 % of control. The T/C [4] was 99 % of control.
In the case of `CN1C(=O)C(=Cc2ccc(O)cc2)C(=O)N(C)C1=O`, the T/C (dose: 300.0 mg/kg/injection, schedule: Q04DX003 (sc), vehicle: saline with Tween-80) is reported as 96 % of control, the T/C (dose: 600.0 mg/kg/injection, schedule: Q04DX003 (sc), vehicle: saline with Tween-80) is reported as 92 % of control and the T/C (dose: 1200.0 mg/kg/injection, schedule: Q04DX003 (sc), vehicle: saline with Tween-80) is reported as 99 % of control. For the same molecule, the T/C (dose: 2400.0 mg/kg/injection, schedule: Q04DX003 (sc), vehicle: saline with Tween-80) was 107 % of control.
In the case of `CC1(C)CC23C4COC(=O)C2CCC1C3CC4=O` (configuration not stated), the T/C (dose: 300.0 mg/kg/injection, schedule: Q04DX003 (sc), vehicle: DMSO) is reported as 108 % of control, the T/C (dose: 600.0 mg/kg/injection, schedule: Q04DX003 (sc), vehicle: DMSO) is reported as 82 % of control and the T/C (dose: 1200.0 mg/kg/injection, schedule: Q04DX003 (sc), vehicle: DMSO) is reported as 104 % of control. The T/C (dose: 2400.0 mg/kg/injection, schedule: Q04DX003 (sc), vehicle: DMSO) was 74 % of control.
`CCCC(=O)OCc1cc(=O)n(C)c2c3c4c(cc12)c(C)cc(=O)n4CO3` was tested, and the T/C (dose: 12.5 mg/kg/injection, schedule: Q01DX010 (sc), vehicle: Klucel (hydroxypropylcellulose) (HPC)) was 170 % of control, the T/C (dose: 25.0 mg/kg/injection, schedule: Q01DX010 (sc), vehicle: Klucel (hydroxypropylcellulose) (HPC)) was 67 % of control and the T/C (dose: 50.0 mg/kg/injection, schedule: Q01DX010 (sc), vehicle: Klucel (hydroxypropylcellulose) (HPC)) was 20 % of control. The T/C (dose: 100.0 mg/kg/injection, schedule: Q01DX010 (sc), vehicle: Klucel (hydroxypropylcellulose) (HPC)) was 15 % of control, the T/C (dose: 200.0 mg/kg/injection, schedule: Q01DX010 (sc), vehicle: Klucel (hydroxypropylcellulose) (HPC)) was 87 % of control and the T/C (dose: 400.0 mg/kg/injection, schedule: Q01DX010 (sc), vehicle: Klucel (hydroxypropylcellulose) (HPC)) was 91 % of control. The T/C (dose: 800.0 mg/kg/injection, schedule: Q01DX010 (sc), vehicle: Klucel (hydroxypropylcellulose) (HPC)) was 72 % of control.
In the case of `O=S(=O)(c1ccccc1)N1CN2CCN(C2)C1`, the T/C [2] is reported as 58 % of control, the T/C [3] is reported as 81 % of control and the T/C [4] is reported as 65 % of control. The T/C (dose: 1600.0 mg/kg/injection, schedule: Q04DX003 (sc), vehicle: saline with Tween-80) was 48 % of control.
For `CCCCCC(O)C1C(=O)OC(C)C(O)/C=C/C=C/C=C/C=C\C=C(\C)C(O)CC(O)CC(O)CC(O)CC(O)CC(O)CC1O` (configuration not stated), the T/C (dose: 300.0 mg/kg/injection, schedule: Q04DX003 (sc), vehicle: distilled water + alcohol) was 84 % of control, the T/C (dose: 600.0 mg/kg/injection, schedule: Q04DX003 (sc), vehicle: distilled water + alcohol) was 107 % of control and the T/C (dose: 1200.0 mg/kg/injection, schedule: Q04DX003 (sc), vehicle: distilled water + alcohol) was 69 % of control.
`Nc1nc(N)c2c(Cl)c(CNc3ccc(Cl)c(Cl)c3)ccc2n1` was tested, and the T/C (dose: 18.75 mg/kg/injection, schedule: Q04DX003 (sc), vehicle: saline with Tween-80) was 80 % of control, the T/C (dose: 37.5 mg/kg/injection, schedule: Q04DX003 (sc), vehicle: saline with Tween-80) was 87 % of control and the T/C (dose: 75.0 mg/kg/injection, schedule: Q04DX003 (sc), vehicle: saline with Tween-80) was 93 % of control. For the same molecule, the T/C (dose: 150.0 mg/kg/injection, schedule: Q04DX003 (sc), vehicle: saline with Tween-80) was 111 % of control.
`c1cc2n(n1)CCN2` was tested, and the T/C [1] was 75 % of control and 77 % of control.
`C(COCCOCC1CO1)OCCOCC1CO1` (configuration not stated) was tested, and the T/C (dose: 300.0 mg/kg/injection, schedule: Q04DX003 (sc), vehicle: saline) was 64 % of control and the T/C (dose: 600.0 mg/kg/injection, schedule: Q04DX003 (sc), vehicle: saline) was 29 % of control.
